Reference: US20180214462A1 (priority 2015, published 2018)
Entries after “also recorded” stand apart in the source; their conditions may differ.

Legend:
[1] = tested on: exposed cortex; assay: Focally-induced cortical seizures (4AP or PTX): intravital fluorescence angiography of vessel diameter and BBB permeability; assay type: in vivo, rat; conditions: for increase in vessel diameter: seizures induced by 4AP (n=6) or PTX (n=2), pooled n=8, immediate
Experimental: All experimental procedures in animals were approved by the Ben-Gurion University ethics committee for animal testing. Unless otherwise mentioned, all materials were purchased from Sigma-Aldrich ltd. Surgical procedures in male Spraugue-Dawley rats (200-380 g BW) were performed as previously reported (Prager et al., 2010). Rats were deeply anesthetized by intraperitoneal administration of either isoflurane or ketamine (100 mg/ml, 0.08 ml/100 gr) and xylasine (20 mg/ml, 0.06 ml/100 gr). The tail vein was catheterized, and animals were placed in a stereotactic frame (FIG. 4A) under a SteREO Lumar V12 fluorescence microscope (Zeiss, Gottingen, Germany).
(§1) Body temperature was continuously monitored and kept stable at 37±0.5° C. using a feedback-controlled heating pad (Physitemp Ltd.). Heart rate, breath rate and oxygen saturation levels were continuously monitored using STARR (Life Sciences Ltd.). A cranial section (4 mm caudal, 2 mm frontal, 5 mm lateral to bregma) was removed over the right sensory-motor cortex. The dura and arachnoid layers were removed (FIG. 4B) and the exposed cortex was continuously perfused with ACSF (Prager et al., 2010) containing (in mM): 124 NaCl, 26 NaHCO3, 1.25 NaH2PO4, […], 2 CaCl2, 3 KCl, and 10 Glucose (pH 7.4).
(§2) To block neuronal activity tetrodotoxin (TTX) (Narahashi et al., 1964) (10 μM), 6-Cyano-2,3-dihydroxy-7-nitro-quinoxaline (CNQX) (Yoshiyama et al., 1995) (50 μM), D-AP5 (Morris, 1989) (50 μM) and picrotoxin (PTX) (Yoon et al., 1993) (50 μM) were added to the perfusing solution (ACSF). To induce prolonged seizures (status epilepticus, SE), 4AP (Uva et al., 2013) (500 μM) or PTX (100 μM) were added to the ACSF. Electrocorticgram (ECoG) was recorded using bi-polar electrodes and a telemetric recording system (DSI Ltd.). In some cases, thrombotic stroke was induced using photothrombosis (Prado, 1987). Detection of calcium ions in the rat cortex was done with calcium chelators as previously reported (Stosiek et al., 2003). 50 μg of the fluorescent chelator OGB were dissolved in 4 μl of dimethyl sulfoxide) DMSO) containing 20% pluronic f-127. This mixture was diluted in […] of a loading solution containing (in mM): 150 NaCl, 2.5 KCl, 10 HEPES, in ddH2O (pH=7.4).
(§3) Dynamic imaging of regional cerebral blood flow (rCBF) and BBB permeability measurements were performed as reported (Chassidim et al., 2014; Prager et al., 2010). The non-BBB permeable fluorescent dye, sodium fluorescein (NaFlu) was injected intravenously (1 mg/ml, 0.2 ml/injection, in 0.9% NaCl). Full-resolution (658×496 pixel) images of cortical surface vessels were obtained (5 frames/second, EMCCD camera: Andor Technology, DL-658 M-TIL, FIG. 4C) before, during and after injection of the tracer. Offline image analysis was carried out using MATLAB (MathWorks, Natick, USA) and included: sub-pixel image registration, segmentation using noise filtration, hole-filling and adaptive threshold to produce a binary image, separating blood vessels from extra-vascular regions (FIG. 4D). Signal intensity changes over time and space were then analyzed so that each pixel was represented by intensity vs. time (IT) curve (FIG. 4E). An arterial IT curve (AIF) was created by spatially averaging signal intensity through time in the primary artery. A BBB permeability index (PI) (FIG. 4E) was calculated for each extra-vascular pixel as the ratio between IT curve and AIF, from the point of the second decline phase to the end of the measurement
(§4) The PI indicates how much tracer remains in extra-vascular tissue in relation to the applied amount. PI>1 indicates tracer accumulation and defines BBB dysfunction. Fitting a PI to each extra-vascular pixel enabled spatial mapping of BBB permeability (FIG. 4F). The PI for each vascular pixel was set to 0, and therefore vessels were excluded from the map. The global permeability of a region was calculated by averaging its PI values. […]

[2] = Preventing intracellular calcium elevation with calcium chelators in vivo; conditions: data not shown
From the text: The observations that direct application of NMDA similarly enhances permeability, and that permeability increase is blocked in the presence of NMDA-R blockers (FIG. 2A) indicate that the effect of glutamate is mediated by NMDA-R. Our experiments showing increased intracellular calcium in vascular endothelium in response to glutamate are consistent with previous in vitro data showing that NMDA-mediated effects are dependent on increased intracellular calcium (Krizbai et al., 1998; Sharp et al., 2003). However, we cannot rule out non-calcium dependent signaling mechanisms and the role of other components of the neurovascular unit, such as astrocytes and pericytes, which could also respond to glutamate and signal brain endothelial cells to alter permeability (Carmignoto and Gómez-Gonzalo, 2010). […] The intracellular signaling leading to enhanced permeability is also not clear. […] The latter seems unlikely with the relatively short time delay between insult (seizure/stroke) and enhanced permeability. Modulation of transcellular transport mechanisms (e.g. intercellular adhesion molecule-ICAM mediated) (Yang et al., 2005)) may also be involved.

[3] = tested on: cortex of rats; assay type: in vivo, rat; conditions: for increase in vessel permeability: cortical perfusion 1 mM, TTX, CNQX and PTX present
Experimental: as §1, §2, §3
as §4, with “values. Permeability measurements with this approach are possible only for regions with fully functional vasculature as the transfer of molecules between vessel and parenchyma is quantified. Increased permeability in damaged vessels is not depicted here.” for “values.”

[4] = tested on: peri-ischemic cortex; assay: Photothrombosis stroke model: BBB dysfunction in the peri-ischemic cortex; assay type: in vivo, rat
Experimental: as §3, with “Offline image analysis was carried out using MATLAB (MathWorks, Natick, USA) and included: sub-pixel image registration, segmentation using noise filtration, hole-filling and adaptive threshold to produce a binary image, separating blood vessels from extra-vascular regions (FIG. 4D).” left out, “An arterial IT curve (AIF) was created by spatially averaging signal intensity through time in the primary artery.” left out
The PI indicates how much tracer remains in extra-vascular tissue in relation to the applied amount. […] The global permeability of a region was calculated by averaging its PI values. Permeability measurements with this approach are possible only for regions with fully functional vasculature as the transfer of molecules between vessel and parenchyma is quantified. […]

[5] = tested on: exposed rat neocortex; assay: NMDA-R antagonists during 4AP-induced recurrent seizures: BBB permeability, ECoG, vessel diameter; assay type: in vivo; conditions: 4AP seizures, Memantine 40 mg/kg IP or D-AP5 100 μM topical; for seizure-induced permeability increase / BBB damage: pooled, p=0.02
Experimental: as §3
ECoG was recorded using a telemetric system (DSI Ltd.). Two electrodes were implanted, one attached to an intra-cranial screw adjacent to the exposed cortex, and the second placed over the exposed cortex while secured with bone wax and dental cement. In-house MATLAB scripts were used to display and record signals for post-processing. Signals were sampled at 200 Hz and filtered using a MATLAB simulated Butterworth filter, so to display only the desired frequency band (10-40 Hz). The mean power was calculated using the MATLAB “pwelch” function.
Since prolonged and recurrent epileptic seizures may also be associated with vascular pathology and damage to the BBB through the activation of NMDA-R, the effect of NMDA-R antagonists after the induction of recurrent seizures in anesthetized rats was tested. The epileptogenic substance 4AP was applied on the surface of the brain while monitoring ECoG.
Animals were treated with either topical application of the specific NMDA-R blocker D-AP5 (100 μM) (prior to and during seizure induction), or systemically with the FDA approved memantine (40 mg/kg, intraperitonealy, immediately following seizure onset).

[6] = tested on: vessels' wall (rat neocortex); assay: Calcium imaging (OGB, probe-based confocal laser endomicroscopy) in vessel wall after drop application of glutamate; assay type: in vivo
Experimental: as §2
The exposed cortex was incubated with the final mixture for 1 hour. Probe-based confocal laser endomicroscopy (PCLE) was performed using Cellvizio dual band (Mauna Kea Technologies Ltd.) at 488 and 660 nm. […]
In control experiments, brains were exposed to ACSF for 60-120 min, no significant change in permeability was measured, excluding a time-dependent increase in permeability (“control”, −5.11±3.07%, n=16, P=0.7, Wilcoxon, FIG. 2A). […]

[7] = tested on: cultured brain endothelial cells; conditions: cited from earlier work
[8] = 30 minutes from seizure onset, recurrent seizures, n=7
[9] = ~10 minutes from seizure onset, 4AP or PTX pooled, n=8

Nc1ccncc1 [4AP]
increase in vessel permeability to NaFlu [1, 8]: 14.17±4.65% | increase in vessel diameter [1]: 10.05±1.01% | increase in vessel permeability to NaFlu [1, 9]: 20.01±7.24%

CC(=O)OCOC(=O)CN(CC(=O)OCOC(C)=O)c1ccccc1OCCOc1ccccc1N(CC(=O)OCOC(C)=O)CC(=O)OCOC(C)=O [BAPTA-AM]
vascular side effect in vivo [2]: massive vasoconstriction and associated ischemia

N[C@H](CCCP(=O)(O)O)C(=O)O [D-AP5, R-2-amino-5-phosphonopentanoate]
change in vessel permeability by glutamate in the presence of antagonist ([3]; glutamate + D-AP5 50 μM): −3.81±4.34% | averaged percent increase in permeability in the peri-infarct cortex ([4]; 30 and 60 min following PT, n=7, p=0.13): non-significant change | spatial progression of BBB dysfunction in the peri-ischemic region ([4]; 30 and 60 minutes after clot induction, vs absence of D-AP5): significantly reduced; also recorded: significantly diminishes | seizure intensity (ECoG) [5]: no impact | seizure-induced permeability increase / BBB damage [5]: diminished

CN[C@H](CC(=O)O)C(=O)O [NMDA, N-methyl-d-aspartate]
increase in vessel permeability [3]: 18.44±7.58%

N[C@@H](CCC(=O)O)C(=O)O [glutamate]
increase in vessel permeability [3]: 18.15%±5.9% | change in vessel diameter ([3]; glutamate application with TTX, CNQX, PTX): 3.12±2.24% | shift in vascular diameter ([3]; topical glutamate 1 mM with axonal and synaptic transmission blockers): not inducing a shift in vascular diameter | calcium signal in the vessel wall ([6]; drop application of glutamate): Rise in calcium signal | duration of increase in endothelial intracellular calcium ([6]; drop application of glutamate 0.01-1 mM, n=109): 12.5 ± 1.3 s | permeability of cultured brain endothelial cells [7]: increase permeability | tight junction protein occludin ([7]; glutamate 1 mM, NMDA-R mediated): reduction in the levels and cellular redistribution | electrical resistance ([7]; glutamate 1 mM): lower electrical resistance

CC12CC3CC(C)(C1)CC(N)(C3)C2 [memantine]
seizure intensity (ECoG) [5]: no impact | seizure-induced permeability increase / BBB damage [5]: diminished

picrotoxin [PTX]
increase in vessel permeability to NaFlu [1, 8]: 14.17±4.65% | increase in vessel diameter [1]: 10.05±1.01% | increase in vessel permeability to NaFlu [1, 9]: 20.01±7.24%
